The values that follow come from ChEMBL document CHEMBL5465560, “Selectivity Literature for EUbOPEN Chemogenomic Library” (2024).

For assay [1], the target named is MAP/microtubule affinity-regulating kinase 3 (Homo sapiens) (UniProt P27448). Briefly: Selectivity interaction (ActivX KiNativ screen (kinase selectivity in THP-1 cell lysates)) EUB0000639a MARK3. It is filed as subcellular. Conditions: lysate, at 0.2 µM.
In assay [2] the target is Rho-associated protein kinase 2 (Homo sapiens, UniProt O75116). Put plainly: Selectivity interaction (ActivX KiNativ screen (kinase selectivity in THP-1 cell lysates)) EUB0000639a ROCK2. The class given is subcellular. As to conditions: lysate.
Sequence of Rho-associated protein kinase 2 (O75116 whole entry, looked up): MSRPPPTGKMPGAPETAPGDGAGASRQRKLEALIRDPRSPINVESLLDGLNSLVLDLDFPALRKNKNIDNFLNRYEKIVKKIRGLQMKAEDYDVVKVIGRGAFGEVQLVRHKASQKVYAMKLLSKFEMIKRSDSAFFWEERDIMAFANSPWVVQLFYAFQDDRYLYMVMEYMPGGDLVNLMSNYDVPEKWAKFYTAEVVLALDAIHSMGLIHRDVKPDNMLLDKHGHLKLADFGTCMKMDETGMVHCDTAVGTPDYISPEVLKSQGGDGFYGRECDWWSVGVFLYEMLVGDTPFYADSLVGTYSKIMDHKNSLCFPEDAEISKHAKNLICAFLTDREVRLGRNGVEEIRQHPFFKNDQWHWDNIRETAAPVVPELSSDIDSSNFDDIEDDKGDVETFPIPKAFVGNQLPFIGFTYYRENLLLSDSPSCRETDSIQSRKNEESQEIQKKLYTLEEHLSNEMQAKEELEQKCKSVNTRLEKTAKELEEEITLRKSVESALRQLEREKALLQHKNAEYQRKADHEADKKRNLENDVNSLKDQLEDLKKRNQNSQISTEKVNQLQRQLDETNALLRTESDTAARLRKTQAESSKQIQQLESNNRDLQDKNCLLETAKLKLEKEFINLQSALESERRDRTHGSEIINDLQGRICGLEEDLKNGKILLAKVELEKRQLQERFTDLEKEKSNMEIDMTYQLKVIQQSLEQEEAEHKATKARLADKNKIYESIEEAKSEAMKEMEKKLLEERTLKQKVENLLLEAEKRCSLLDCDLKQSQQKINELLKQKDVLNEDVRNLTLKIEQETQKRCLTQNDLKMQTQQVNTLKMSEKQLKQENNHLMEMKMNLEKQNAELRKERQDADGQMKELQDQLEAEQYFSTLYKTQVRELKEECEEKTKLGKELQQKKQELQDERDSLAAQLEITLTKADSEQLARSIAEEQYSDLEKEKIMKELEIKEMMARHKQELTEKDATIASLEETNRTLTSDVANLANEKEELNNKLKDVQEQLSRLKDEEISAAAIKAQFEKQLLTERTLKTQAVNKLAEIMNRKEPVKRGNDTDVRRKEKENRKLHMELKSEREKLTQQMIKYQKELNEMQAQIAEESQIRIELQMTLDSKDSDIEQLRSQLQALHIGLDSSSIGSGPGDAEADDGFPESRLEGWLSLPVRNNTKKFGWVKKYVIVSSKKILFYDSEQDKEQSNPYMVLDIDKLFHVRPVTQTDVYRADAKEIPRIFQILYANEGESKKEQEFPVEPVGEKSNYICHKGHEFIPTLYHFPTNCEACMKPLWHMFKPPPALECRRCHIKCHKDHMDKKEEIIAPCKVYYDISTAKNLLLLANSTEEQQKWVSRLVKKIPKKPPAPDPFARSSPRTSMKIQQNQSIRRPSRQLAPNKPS
In assay [3] the target is Mitogen-activated protein kinase 1 (Homo sapiens, UniProt P28482). Put plainly: Selectivity interaction (Kinase panel (literature)) EUB0001199aCl MAPK1. As to conditions: at 1 µM.
Sequence of Mitogen-activated protein kinase 1 (P28482 whole entry, the tested form may be a part): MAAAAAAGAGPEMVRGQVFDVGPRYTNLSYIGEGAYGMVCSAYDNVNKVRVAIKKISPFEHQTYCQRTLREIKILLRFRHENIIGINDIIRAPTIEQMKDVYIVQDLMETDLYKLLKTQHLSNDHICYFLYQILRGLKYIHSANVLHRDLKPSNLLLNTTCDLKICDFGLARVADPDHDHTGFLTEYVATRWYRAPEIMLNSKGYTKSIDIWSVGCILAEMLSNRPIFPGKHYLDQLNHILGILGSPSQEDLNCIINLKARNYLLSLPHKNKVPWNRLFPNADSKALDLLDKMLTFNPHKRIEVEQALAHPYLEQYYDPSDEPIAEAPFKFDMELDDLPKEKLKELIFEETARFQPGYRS
For assay [4], the target named is T1, Ankyrin repeat and protein kinase domain-containing protein 1 (Homo sapiens) (UniProt Q8NFD2).
T1 sequence (whole entry): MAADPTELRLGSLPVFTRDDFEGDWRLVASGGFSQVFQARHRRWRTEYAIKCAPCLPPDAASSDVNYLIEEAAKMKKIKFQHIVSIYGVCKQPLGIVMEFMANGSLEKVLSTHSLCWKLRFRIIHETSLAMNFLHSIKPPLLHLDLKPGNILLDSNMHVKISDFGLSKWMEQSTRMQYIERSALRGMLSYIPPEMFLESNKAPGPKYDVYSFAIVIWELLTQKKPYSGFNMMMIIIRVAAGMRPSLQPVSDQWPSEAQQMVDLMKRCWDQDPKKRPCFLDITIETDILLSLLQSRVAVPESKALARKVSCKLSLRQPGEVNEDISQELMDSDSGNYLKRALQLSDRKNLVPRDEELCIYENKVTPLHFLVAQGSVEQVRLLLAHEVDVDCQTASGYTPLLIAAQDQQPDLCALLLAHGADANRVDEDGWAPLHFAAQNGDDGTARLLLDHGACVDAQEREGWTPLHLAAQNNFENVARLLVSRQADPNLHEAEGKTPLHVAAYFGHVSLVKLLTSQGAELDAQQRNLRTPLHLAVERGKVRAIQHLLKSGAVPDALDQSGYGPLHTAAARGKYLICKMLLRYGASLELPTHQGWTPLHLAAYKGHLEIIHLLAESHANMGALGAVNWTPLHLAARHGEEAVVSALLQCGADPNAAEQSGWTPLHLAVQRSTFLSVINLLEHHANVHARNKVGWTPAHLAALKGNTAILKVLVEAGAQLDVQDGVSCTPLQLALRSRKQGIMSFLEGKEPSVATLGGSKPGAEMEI
Put plainly: Selectivity interaction (KinomeScan (DiscoverX)) EUB0000618a ANKK1. As to conditions: at 10 µM.

For assay [5], the target named is T2, Inhibitor of nuclear factor kappa-B kinase subunit beta (Homo sapiens) (UniProt O14920).
T2 sequence (whole entry): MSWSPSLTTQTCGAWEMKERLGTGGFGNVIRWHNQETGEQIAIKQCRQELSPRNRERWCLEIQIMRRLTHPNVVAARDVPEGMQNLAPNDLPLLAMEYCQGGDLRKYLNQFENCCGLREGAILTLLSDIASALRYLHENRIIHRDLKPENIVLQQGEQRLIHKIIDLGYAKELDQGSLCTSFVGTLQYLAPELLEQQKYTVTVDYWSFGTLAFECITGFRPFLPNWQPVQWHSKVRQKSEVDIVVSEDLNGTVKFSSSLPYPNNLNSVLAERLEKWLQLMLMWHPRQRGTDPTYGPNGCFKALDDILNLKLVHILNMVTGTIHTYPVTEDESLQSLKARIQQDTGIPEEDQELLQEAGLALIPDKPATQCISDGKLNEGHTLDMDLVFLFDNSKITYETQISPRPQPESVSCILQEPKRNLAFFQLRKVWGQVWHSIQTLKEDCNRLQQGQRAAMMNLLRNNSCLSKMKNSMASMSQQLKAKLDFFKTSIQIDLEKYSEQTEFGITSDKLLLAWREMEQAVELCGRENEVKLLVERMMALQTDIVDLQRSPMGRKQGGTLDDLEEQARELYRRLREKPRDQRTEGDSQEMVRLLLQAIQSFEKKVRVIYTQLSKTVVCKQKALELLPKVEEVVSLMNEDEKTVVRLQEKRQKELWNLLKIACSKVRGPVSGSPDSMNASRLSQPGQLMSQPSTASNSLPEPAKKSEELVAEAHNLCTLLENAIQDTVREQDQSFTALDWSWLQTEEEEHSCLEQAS
Put plainly: Selectivity interaction (KinomeScan (DiscoverX)) EUB0000618a IKBKB. As to conditions: at 10 µM.

Assay [6] addresses T3, Phosphatidylinositol 4,5-bisphosphate 3-kinase catalytic subunit delta isoform (Homo sapiens) (UniProt O00329).
T3 sequence (whole entry): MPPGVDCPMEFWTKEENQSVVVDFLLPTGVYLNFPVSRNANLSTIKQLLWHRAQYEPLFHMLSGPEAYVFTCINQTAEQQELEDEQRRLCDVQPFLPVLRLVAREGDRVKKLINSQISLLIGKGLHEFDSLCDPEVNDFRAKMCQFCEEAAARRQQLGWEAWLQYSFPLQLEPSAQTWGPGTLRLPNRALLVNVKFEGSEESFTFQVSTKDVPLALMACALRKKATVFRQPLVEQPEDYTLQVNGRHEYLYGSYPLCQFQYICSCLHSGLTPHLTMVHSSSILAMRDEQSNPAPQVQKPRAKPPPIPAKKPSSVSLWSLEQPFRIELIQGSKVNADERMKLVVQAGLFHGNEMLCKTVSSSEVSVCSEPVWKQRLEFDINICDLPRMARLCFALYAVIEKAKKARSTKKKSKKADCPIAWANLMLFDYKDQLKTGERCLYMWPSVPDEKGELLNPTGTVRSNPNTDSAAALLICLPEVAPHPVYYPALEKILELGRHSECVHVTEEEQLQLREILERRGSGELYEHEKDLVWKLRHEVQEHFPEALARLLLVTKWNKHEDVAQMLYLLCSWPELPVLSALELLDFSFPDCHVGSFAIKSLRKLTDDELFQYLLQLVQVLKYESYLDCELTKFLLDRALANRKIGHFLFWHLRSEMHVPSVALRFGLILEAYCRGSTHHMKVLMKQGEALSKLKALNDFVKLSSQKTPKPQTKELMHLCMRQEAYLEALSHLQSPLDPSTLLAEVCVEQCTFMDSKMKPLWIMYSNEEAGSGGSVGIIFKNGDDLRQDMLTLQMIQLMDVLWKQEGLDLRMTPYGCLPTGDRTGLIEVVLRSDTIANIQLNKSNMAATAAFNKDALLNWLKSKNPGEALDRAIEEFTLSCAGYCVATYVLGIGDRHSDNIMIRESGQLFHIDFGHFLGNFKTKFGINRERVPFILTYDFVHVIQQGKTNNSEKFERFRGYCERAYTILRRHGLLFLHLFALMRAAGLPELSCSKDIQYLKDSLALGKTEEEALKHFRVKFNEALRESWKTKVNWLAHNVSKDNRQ
Briefly: Selectivity interaction (Kinase panel (KiNativ target engagement assay in Jurkat cells)) EUB0001635a PIK3CD. The class given is cell-based. Conditions: Selectivity number of off-targets 0.0, Selectivity number of targets 233.0, Source Knowledge https://www.sciencedirect.com/science/article/pii/S2451945619300674?via%3Dihub, at 1 µM.

Sequence of MAP/microtubule affinity-regulating kinase 3 (Homo sapiens) (P27448 whole entry, looked up): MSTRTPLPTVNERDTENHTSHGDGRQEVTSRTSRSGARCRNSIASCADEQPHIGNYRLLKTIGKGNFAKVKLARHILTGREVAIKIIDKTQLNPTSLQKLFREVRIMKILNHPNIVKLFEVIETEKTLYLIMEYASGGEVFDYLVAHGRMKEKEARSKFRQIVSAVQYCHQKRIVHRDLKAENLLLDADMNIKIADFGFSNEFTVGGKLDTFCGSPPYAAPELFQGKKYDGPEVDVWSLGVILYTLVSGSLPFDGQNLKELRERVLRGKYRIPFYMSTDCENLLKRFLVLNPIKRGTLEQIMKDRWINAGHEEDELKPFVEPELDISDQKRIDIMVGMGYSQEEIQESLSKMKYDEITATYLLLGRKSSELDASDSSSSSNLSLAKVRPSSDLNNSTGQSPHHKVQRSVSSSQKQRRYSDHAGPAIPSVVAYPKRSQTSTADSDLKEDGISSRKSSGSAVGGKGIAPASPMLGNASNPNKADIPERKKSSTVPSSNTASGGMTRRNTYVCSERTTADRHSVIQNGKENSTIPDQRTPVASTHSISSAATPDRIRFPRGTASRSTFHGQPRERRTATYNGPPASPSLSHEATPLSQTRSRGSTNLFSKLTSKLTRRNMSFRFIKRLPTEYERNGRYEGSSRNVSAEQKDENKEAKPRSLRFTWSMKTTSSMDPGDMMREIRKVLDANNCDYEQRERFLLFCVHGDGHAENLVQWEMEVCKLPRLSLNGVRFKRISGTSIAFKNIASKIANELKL

As for `CC[C@@H]1[C@H](F)C(=O)N[C@@H]1COc1nccc2cc(C(N)=O)c(OC)cc12` [ZIMLOVISERTIB], the % of inhibition in assay [1] is 19.8%; in assay [2] (at 0.01 µM), 12.6%; in assay [2] (at 0.04 µM), -4.3%; in assay [2] (at 0.2 µM), -10.6%; in assay [2] (at 1 µM) it was 18.3%; in assay [2] (at 5 µM) it was 53.9%.

Regarding `CN1Cc2nccc(-c3cn(C)nc3-c3ccc(F)cc3)c2C1=O`, the % of inhibition in assay [3] was found to be 2%.

Turning to `O[C@H]1CC[C@H](Nc2ncc3nc(Nc4c(F)cc(F)cc4F)n([C@H]4CCOC4)c3n2)CC1`, the % of control in assay [4] and in assay [5] was 100% each time.

In the case of `C=CC(=O)Nc1ccc(C(=O)Nc2[nH]nc3c2CN(C(=O)N[C@H](CN(C)C)c2ccccc2)C3(C)C)cc1`, the % of engagement in assay [6] is -6.8%.
